Measurements from patent EP1247803A2, “Indolinone compounds suitable for modulation of protein kinases” (Sugen, Inc., priority 1996, dated 1998).

The molecules below were run against T1, FLK-1 receptor (Mus musculus, UniProt P35918) (assay: FLK-1 ELISA (kinase activity of the FLK-1 receptor in FLK-1/NIH3T3 cells, VEGF stimulated)).
T1 construct: expressed in transfected cells; host or cells: NIH3T3 C7#3
Type: cell-based
How it was run: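 FLK-1-expressing NIH3T3 C7#3 cells, starved overnight in 0.1% FBS medium, were treated with compounds at a 1:200 final dilution (0.5% DMSO) for 2 h at 37 °C, with VEGF stimulation. FLK-1 kinase activity was read by ELISA on anti-rabbit IgG plates using affinity-purified anti-FLK-1 antiserum.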

T1 sequence (P35918 20-1345): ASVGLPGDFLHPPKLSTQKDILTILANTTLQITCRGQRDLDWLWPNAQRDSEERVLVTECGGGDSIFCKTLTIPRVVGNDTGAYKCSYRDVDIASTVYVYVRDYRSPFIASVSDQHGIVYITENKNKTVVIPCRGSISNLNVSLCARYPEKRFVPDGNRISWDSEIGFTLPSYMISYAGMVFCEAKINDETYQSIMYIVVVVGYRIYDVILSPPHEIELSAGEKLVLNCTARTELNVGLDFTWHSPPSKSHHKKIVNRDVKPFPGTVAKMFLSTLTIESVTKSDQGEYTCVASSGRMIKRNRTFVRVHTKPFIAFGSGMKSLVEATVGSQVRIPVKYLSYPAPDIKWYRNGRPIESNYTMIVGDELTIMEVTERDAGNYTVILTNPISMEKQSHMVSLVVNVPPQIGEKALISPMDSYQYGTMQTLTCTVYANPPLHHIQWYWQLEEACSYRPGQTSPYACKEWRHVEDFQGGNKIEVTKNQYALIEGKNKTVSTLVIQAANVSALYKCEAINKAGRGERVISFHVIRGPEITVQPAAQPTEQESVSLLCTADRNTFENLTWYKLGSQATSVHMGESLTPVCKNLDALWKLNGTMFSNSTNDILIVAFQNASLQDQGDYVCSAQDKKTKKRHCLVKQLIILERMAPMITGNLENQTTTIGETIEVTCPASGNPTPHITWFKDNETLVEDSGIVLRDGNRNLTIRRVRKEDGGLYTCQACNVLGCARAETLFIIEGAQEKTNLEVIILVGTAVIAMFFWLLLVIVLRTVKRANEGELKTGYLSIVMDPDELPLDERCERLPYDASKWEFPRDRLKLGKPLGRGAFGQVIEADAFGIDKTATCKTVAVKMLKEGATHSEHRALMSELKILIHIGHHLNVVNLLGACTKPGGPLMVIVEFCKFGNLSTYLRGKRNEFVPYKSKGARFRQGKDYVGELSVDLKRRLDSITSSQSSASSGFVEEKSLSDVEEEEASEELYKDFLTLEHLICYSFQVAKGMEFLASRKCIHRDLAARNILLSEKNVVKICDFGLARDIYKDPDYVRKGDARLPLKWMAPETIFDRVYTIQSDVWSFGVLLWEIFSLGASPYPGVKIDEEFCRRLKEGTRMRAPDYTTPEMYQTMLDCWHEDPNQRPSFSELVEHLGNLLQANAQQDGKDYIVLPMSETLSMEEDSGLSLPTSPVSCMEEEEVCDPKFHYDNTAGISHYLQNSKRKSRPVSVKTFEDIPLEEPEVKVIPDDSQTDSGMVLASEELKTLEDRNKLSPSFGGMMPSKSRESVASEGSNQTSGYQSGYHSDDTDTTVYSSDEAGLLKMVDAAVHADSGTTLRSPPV

SMILES	Fik Kinase %Inhibition
Cc1c(Br)ccc2c1C(=Cc1ccc(Br)s1)C(=O)N2 [10734/C11]	6.3%
Cc1cc(C=C2C(=O)Nc3ccc(CCCl)cc32)cc(C)c1OCc1ccccc1 [10733/G07]	19.5%
O=C1Nc2ccc(I)cc2C1=Cc1cc(Cl)ccc1O [10734/B04]	2.8%
COC(=O)c1[nH]c(C)c(C=C2C(=O)Nc3ccc(S(=O)(=O)Nc4ccc(C(F)(F)F)cc4)cc32)c1C(=O)OC [10718/E07]	15.6%
CC(C)(C)c1ccc(C=C2C(=O)Nc3c(Br)cc(Br)cc32)cc1 [10734/A10]	4.4%
O=C1Nc2c(Br)cc(Br)cc2C1=Cc1cc(Br)cc(Br)c1O [10734/A07]	-9.4%
CCOc1cccc(C=C2C(=O)Nc3c(Br)cc(Br)cc32)c1O [10734/A02]	4.1%
CCOc1cccc(C=C2C(=O)Nc3ccc(I)cc32)c1O [10734/B02]	8.5%
O=C1Nc2ccc(S(=O)(=O)Nc3ccc(C(F)(F)F)cc3)cc2C1=Cc1ccco1 [10718/E10]	15.2%
CC(C)(C)c1cc(C=C2C(=O)Nc3ccc(CCCl)cc32)cc(C(C)(C)C)c1OCc1ccccc1 [10733/G05]	19.2%
O=C1Nc2c(Br)cc(Br)cc2C1=Cc1ccc(O)c(Br)c1 [10734/A09]	-7.9%
Cc1cc(C=C2C(=O)Nc3ccc(S(=O)(=O)Nc4ccc(C(F)(F)F)cc4)cc32)cc(C)c1OCc1ccccc1 [10733/E07]	13.2%
CCOC(=O)c1cc(C=C2C(=O)Nc3ccc(S(=O)(=O)Nc4ccc(C(F)(F)F)cc4)cc32)oc1C [10718/E06]	15.4%
COc1c(C)cc(C=C2C(=O)Nc3ccc(S(=O)(=O)Nc4ccc(C(F)(F)F)cc4)cc32)cc1C [10733/E06]	13.5%
O=C1Nc2ccc(CCCl)cc2C1=Cc1cc(Br)ccc1O [10733/G09]	77.8%
O=C1Nc2ccc(I)cc2C1=Cc1ccc(Br)s1 [10734/B11]	12.6%
COc1cc(Br)cc(C=C2C(=O)Nc3ccc(S(=O)(=O)Nc4ccc(C(F)(F)F)cc4)cc32)c1O [10733/E08]	-5.1%
O=C1Nc2ccc(I)cc2C1=Cc1cccc(F)c1O [10734/B08]	-0.5%
O=C1Nc2ccc(S(=O)(=O)Nc3ccc(C(F)(F)F)cc3)cc2C1=Cc1ccc2ccccc2c1O [10718/E04]	15.1%
CNS(=O)(=O)c1ccc2c(c1)C(=Cc1ccc([N+](=O)[O-])cc1)C(=O)N2 [10734/D06]	0.0%
O=C1Nc2ccc(S(=O)(=O)N3CCOCC3)cc2C1=Cc1cc([N+](=O)[O-])ccc1O [10733/F10]	8.5%
CCN(CC)c1ccc(C=C2C(=O)Nc3ccc(I)cc32)c(O)c1 [10734/B05]	-2.3%
Cc1c(O)ccc(C=C2C(=O)Nc3ccc(S(=O)(=O)Nc4ccc(C(F)(F)F)cc4)cc32)c1O [10718/E09]	0.9%
Cc1cc(C=C2C(=O)Nc3ccc(S(=O)(=O)N4CCOCC4)cc32)cc(C)c1OCc1ccccc1 [10733/F07]	16.4%
CCOc1cccc(C=C2C(=O)Nc3ccc(S(=O)(=O)NC)cc32)c1O [10734/D02]	-11.5%

SMILES	Fik Kinase %Inhibition
O=C1Nc2ccc(I)cc2C1=Cc1ccc(O)c(Br)c1 [10734/B09]	-32.3%
Cc1c(Br)ccc2c1C(=Cc1ccc(O)c(Br)c1)C(=O)N2 [10734/C09]	-13.3%
CCN(CC)c1ccc(C=C2C(=O)Nc3ccc(Br)c(C)c32)c(O)c1 [10734/C05]	-10.3%
CNS(=O)(=O)c1ccc2c(c1)C(=Cc1ccc(O)c(Br)c1)C(=O)N2 [10734/D09]	-11.6%
O=C1Nc2ccc(I)cc2C1=Cc1cc(Br)cc(Br)c1O [10734/B07]	9.1%
Cc1c(Br)ccc2c1C(=Cc1cccc(F)c1O)C(=O)N2 [10734/C08]	-34.2%
COc1c(O)ccc(C=C2C(=O)Nc3ccc(CCCl)cc32)c1[N+](=O)[O-] [10733/G11]	3.3%
Cc1c(Br)ccc2c1C(=Cc1cc(Cl)ccc1O)C(=O)N2 [10734/C04]	-37.6%
O=C1Nc2ccc(S(=O)(=O)N3CCOCC3)cc2C1=Cc1cc(Br)ccc1O [10733/F09]	-2.1%
O=C1Nc2c(Br)cc(Br)cc2C1=Cc1cc(Cl)cc(Cl)c1O [10734/A03]	10.1%
Cc1[nH]c(C=C2C(=O)Nc3c(Br)cc(Br)cc32)c(Br)c1Br [10717/A11]	-5.8%
O=C1Nc2ccc(I)cc2C1=Cc1cc(Cl)cc(Cl)c1O [10734/B03]	21.7%
COc1cc(Br)cc(C=C2C(=O)Nc3ccc(CCCl)cc32)c1O [10733/G08]	2.5%
Cc1c(Br)ccc2c1C(=Cc1ccc(C(C)(C)C)cc1)C(=O)N2 [10734/C10]	10.1%
CNS(=O)(=O)c1ccc2c(c1)C(=Cc1cccc(F)c1O)C(=O)N2 [10734/D08]	2.5%
O=C1Nc2ccc(CCCl)cc2C1=Cc1cc([N+](=O)[O-])ccc1O [10733/G10]	12.7%
O=C1Nc2ccc(S(=O)(=O)Nc3ccc(C(F)(F)F)cc3)cc2C1=Cc1ccc(Cl)c([N+](=O)[O-])c1 [10718/E08]	9.2%
COc1c([N+](=O)[O-])cc(C=C2C(=O)Nc3ccc(CCCl)cc32)cc1C(C)(C)C [10733/G03]	24.7%
O=C1Nc2c(Br)cc(Br)cc2C1=Cc1ccc(Br)s1 [10734/A11]	6.3%
O=C1Nc2c(Br)cc(Br)cc2C1=Cc1cc(Cl)ccc1O [10734/A04]	0.6%
COc1c([N+](=O)[O-])cc(C=C2C(=O)Nc3ccc(S(=O)(=O)Nc4ccc(C(F)(F)F)cc4)cc32)cc1C(C)(C)C [10733/E03]	42.6%
Cc1c(Br)ccc2c1C(=Cc1ccc([N+](=O)[O-])cc1)C(=O)N2 [10734/C06]	-1.7%
CC(C)(C)c1cc(C=C2C(=O)Nc3ccc(S(=O)(=O)N4CCOCC4)cc32)cc(I)c1OCc1ccccc1 [10733/F02]	-15.7%
O=C1Nc2ccc(I)cc2C1=Cc1ccc([N+](=O)[O-])cc1 [10734/B06]	-0.9%
CNS(=O)(=O)c1ccc2c(c1)C(=Cc1ccc(Br)s1)C(=O)N2 [10734/D11]	9.8%

SMILES	Fik Kinase %Inhibition
CCN(CC)c1ccc(C=C2C(=O)Nc3ccc(S(=O)(=O)NC)cc32)c(O)c1 [10734/D05]	2.4%
COc1c(O)ccc(C=C2C(=O)Nc3ccc(S(=O)(=O)Nc4ccc(C(F)(F)F)cc4)cc32)c1[N+](=O)[O-] [10733/E11]	5.5%
O=C1Nc2c(Br)cc(Br)cc2C1=Cc1ccc([N+](=O)[O-])cc1 [10734/A06]	-6.4%
COc1c([N+](=O)[O-])cc(C=C2C(=O)Nc3ccc(S(=O)(=O)N4CCOCC4)cc32)cc1C(C)(C)C [10733/F03]	17.5%
CCN(CC)c1ccc(C=C2C(=O)Nc3c(Br)cc(Br)cc32)c(O)c1 [10734/A05]	9.1%
CNS(=O)(=O)c1ccc2c(c1)C(=Cc1cc(Br)cc(Br)c1O)C(=O)N2 [10734/D07]	14.7%
COc1cc(Br)cc(C=C2C(=O)Nc3ccc(S(=O)(=O)N4CCOCC4)cc32)c1O [10733/F08]	-13.2%
O=C1Nc2ccc(S(=O)(=O)Nc3ccc(C(F)(F)F)cc3)cc2C1=Cc1cc(Cl)cc(Cl)c1O [10734/E03]	26.9%
CC(C)(C)c1cc(C=C2C(=O)Nc3ccc(CCCl)cc32)cc(I)c1OCc1ccccc1 [10733/G02]	8.3%
CC(C)(C)c1cc(C=C2C(=O)Nc3ccc(S(=O)(=O)N4CCOCC4)cc32)cc(C(C)(C)C)c1OCc1ccccc1 [10733/F05]	26.2%
O=C1Nc2ccc(S(=O)(=O)Nc3ccc(C(F)(F)F)cc3)cc2C1=Cc1cc(Br)ccc1O [10733/E09]	13.4%
CNS(=O)(=O)c1ccc2c(c1)C(=Cc1cc(Cl)cc(Cl)c1O)C(=O)N2 [10734/D03]	17.4%
CNS(=O)(=O)c1ccc2c(c1)C(=Cc1cc(Cl)ccc1O)C(=O)N2 [10734/D04]	6.1%
O=C1Nc2c(Br)cc(Br)cc2C1=Cc1cccc(F)c1O [10734/A08]	0.1%
COc1c(C(C)(C)C)cc(C=C2C(=O)Nc3ccc(S(=O)(=O)N4CCOCC4)cc32)cc1C(C)(C)C [10733/F04]	21.4%
O=C1Nc2ccc(S(=O)(=O)Nc3ccc(C(F)(F)F)cc3)cc2C1=Cc1ccc([N+](=O)[O-])o1 [10718/E11]	12.1%
O=C1Nc2ccc(S(=O)(=O)Nc3ccc(C(F)(F)F)cc3)cc2C1=Cc1cc([N+](=O)[O-])ccc1O [10733/E10]	5.5%
COc1c(C)cc(C=C2C(=O)Nc3ccc(CCCl)cc32)cc1C [10733/G06]	37.0%
Cc1c(Br)ccc2c1C(=Cc1cc(Cl)cc(Cl)c1O)C(=O)N2 [10734/C03]	-5.6%
CCOC(=O)CCc1c(C(=O)OCC)[nH]c(C=C2C(=O)Nc3ccc(S(=O)(=O)Nc4ccc(C(F)(F)F)cc4)cc32)c1CC(=O)OCC [10718/E05]	16.1%
CCOc1cccc(C=C2C(=O)Nc3ccc(Br)c(C)c32)c1O [10734/C02]	-3.9%
CCOc1cccc(C=C2C(=O)Nc3ccc(S(=O)(=O)Nc4ccc(C(F)(F)F)cc4)cc32)c1O [10734/E02]	7.9%
COc1c(C(C)(C)C)cc(C=C2C(=O)Nc3ccc(CCCl)cc32)cc1C(C)(C)C [10733/G04]	11.5%
COc1c(O)ccc(C=C2C(=O)Nc3ccc(S(=O)(=O)N4CCOCC4)cc32)c1[N+](=O)[O-] [10733/F11]	4.1%
CC(C)(C)c1cc(C=C2C(=O)Nc3ccc(S(=O)(=O)Nc4ccc(C(F)(F)F)cc4)cc32)cc(C(C)(C)C)c1OCc1ccccc1 [10733/E05]	10.6%
